Reference: patent publication US5756478A, “Method for reducing toxicity of D-nucleoside analogs with L-nucleosides” (priority 1996, dated 1998)
Several values for one entry are separate records, joined by “and”; a condition that tells them apart may be missing. Equal values may be shown once. Entries after “also recorded” stand apart in the source; their conditions may differ. Read-outs that look alike come from different tables or passages of the source.

Experiments:
[1] = tested on: CEM, a Human T-type lymphoblast tumor cell line; experiment: Cell growth inhibition of CEM cells by D-nucleosides with or without L-nucleosides; format: cell-based
Excerpt: CEM, a Human T-type lymphoblast tumor cell line was used for this study. […] At the end of four days after the addition of the drug, the cell number was estimated by hemocytometer. […] The data, presented below in Table 1-3, are normalized against the control. The parenthetical values represent the expected effect the combined agents should have on cell growth.

[2] = tested on: HIV-1IIIB; experiment: Anti-HIV activity: protection of MT-2 cells infected with HIV-1IIIB (MTT-dye reduction); format: cell-based; settings: Human immunodeficiency virus 1, MT2, 120 h
Method: (§1) The following anti-HIV drugs were tested in combination with the L-nucleosides β-L-5-fluoro-2',b 3'-dideoxycytidine [β-L-FddC or L(-)FddC], β-L-5-fluoro-2',3'-dideoxy-2',3'-didehydrocytidine [β-L-Fd4C or L(-)Fd4C], β-L-5-fluoro-2',3'-dideoxy-3'-thiacytidine [L(-)FTC] and β-L-2',3'-dideoxy-3'-thiacytidine [L(-)SddC or 3TC]: 3'-azido-3'deoxythymidine (AZT) as well as the β-D-2',3'-dideoxynucleosides, for example, β-D-2',3'-dideoxycytidine (ddC), β-D-2',3'-dideoxyadenosine, β-D-2',3'-dideoxyinosine (DDI) and β-D-2',3'-didehydro-3'-deoxy-thymidine (D4T). β-L-FddC and β-L-Fd4C was obtained following the method of Lin, et al., J. Med. Chem., 37, no. 6 (1994). L(-)FTC and L(-)SddC were prepared by standard literature procedures. See, for example, Jeong, et al. J. Med. Chem., 36, 181 (1993). AZT was obtained from Sigma Chemical Co., St. Louis, Mo., USA. ddC was obtained from Aldrich Chemical Co., Milwaukke, Wis. USA. DDI and D4T were obtained from Bristol-Myers Co., Wallingford, Conn., USA.
(§2) The above-mentioned drugs were tested using MT-2 cells infected with HIV-1IIIB as described by JW Mellers, et al., Molecular Pharm. 41, 446-451 (1991) with some modification. Briefly, triplicate wells of 96-well plates containing 1×10^4 MT-2 cells were infected with HIV-1IIIB at a multiplicity of infection (MOI) of 0.1 TCID50 per cell (TCID50 - 50% tissue culture infective dose). Serial dilutions of drug were added immediately after infection. Cell viability was quantitated 5 days after infection by the MTT-dye reduction model (Larder, et al. Antimicrob. Agents Chemother. 34, 436-441, 1990). The percentage of protection was calculated with the formula [(a-b/c-b)×100], in which a=the A595 of drug-treated, virus-infected well, b=A595 of no-drug infected wells, and c=A595 of no-drug, uninfected wells.

[3] = tested on: HIV-1IIIB; experiment: Anti-HIV combination of D- and L-nucleosides in HIV-1IIIB infected MT-2 cells (isobolograms); format: cell-based; settings: for Effect of L-nucleoside on ID50 of co-administered D-nucleoside: with AZT, D4T, ddC or DDI; for Nature of the anti-HIV combination effect with L-nucleosides (ID50): D-nucleoside co-administered with β-L-FddC, L(-)FTC, L(-)SddC or β-L-Fd4C
Method: as §1, §2
Isobolograms (FIGS. 1-2) were plotted as the percent change in the ID50 of β-L-FddC (L(-)FddC), L(-)FTC, L(-)SddC (FIGS. 1 and 2) β-L-Fd4C (L(-)Fd4C) at various concentrations in combination with AZT, D4T, ddC or DDI at varying concentations on the x-axis and vice versa on the y-axis. Isobolograms (FIG. 3) were plotted as the percent change in the ID50 of β-L-Fd4C (L(-)Fd4C) at various concentrations in combination with AZT or D4T at varying concentrations on the x-axis and vice-versa on the y-axis.

[4] = tested on: Mitochondrial DNA (mtDNA); experiment: Mitochondrial DNA (mtDNA) content of CEM cells (slot blot); format: cell-based, Human; settings: with AZT, ddC, DDI or D4T
Method: To determine the effect of nucleoside analogues on mtDNA content, CEM cells were treated with various concentrations of drug 8 days with medium and drug changes every 2 days. Cells (1×10^5)are washed twice with phosphate buffered […] (PBS) and resuspended in 25 mM Tris (pH 8.0) and 1 mM EDTA. The cells are lysed by 5 cycles of freeze/thaw. RNAase A (DNase free, final concentration of 0.1 mg/ml) is added to the cel ysate and incubated for 3 hours at 50° C. The lysate is brought to a final concentration of 10×SSC, boiled for 10 min., and applied to a nylon membrane presoaked in 2X SSC using a slot blot apparatus. […] All blots are normalized for loading using an Alu probe (ATCC). Blots are exposed to X-ray film and quantitated using a Molecular Dynamics Personal Densitometer SI.

[5] = Homo sapiens, CCRF-CEM, 96 h, single agent, 0.1 uM, day 4, read-out: Day 4 Cell Growth - % of Control
[6] = Homo sapiens, CCRF-CEM, 96 h, single agent, 1.0 uM, day 4, read-out: Day 4 Cell Growth - % of Control
[7] = MT-2 cells, HIV-1IIIB, MOI 0.1 TCID50 per cell, 5 days, read-out: ID50 (the source's name)

Compound `Nc1nc(=O)n([C@@H]2CS[C@H](CO)O2)cc1F` [L(-)FTC, β-L-5-fluoro-2',3'-dideoxy-3'-thiacytidine] has an activity at 0.1 µM [1, 5] of 104%, an activity at 1 µM [1, 6] of 87% and an activity at 10 µM ([1]; Homo sapiens, CCRF-CEM, 96 h, single agent, 10 uM, day 4, read-out: Day 4 Cell Growth - % of Control) of 76%. For the same compound, the “Day 4 Cell Growth - % of Control” value ([1]; single agent, 1.0 uM, listed as (-) FTC, 5760 min) was 84 % of Control, the “Day 4 Cell Growth - % of Control” value ([1]; single agent, 1.0 uM, listed as FTC, 5760 min) was 87 % of Control and the IC50 ([2]; MT-2 cells, HIV-1IIIB, MOI 0.1 TCID50 per cell, 5 days, unit inferred, read-out: ID50 (the source's name)) was 600 nM. For the same compound, the “Effect of L-nucleoside on ID50 of co-administered D-nucleoside” value [3] was “reduces the ID50 value of AZT, ddC, DDI and D4T; also recorded: decreases the ID50 of a co-administered D-nucleoside and vice versa” and the “Effect of L-nucleoside on D-nucleoside inhibition of mitochondrial DNA synthesis” value [4] was “could prevent the effect of AZT, ddC, DDI or D4T in inhibiting the synthesis of mitochondrial DNA synthesis”.
In the case of `Nc1nc(=O)n(C2CCC(CO)O2)cc1F` (single isomer, unassigned) [β-L-FddC, β-L-5-fluoro-2',3'-dideoxycytidine], the activity at 1 µM [1, 6] is reported as 84%, the IC50 [2, 7] is reported as 450 nM and the “Effect of L-nucleoside on ID50 of co-administered D-nucleoside” value [3] is reported as “reduces the ID50 value of AZT, ddC, DDI and D4T; also recorded: decreases the ID50 of a co-administered D-nucleoside and vice versa”. The “Effect of L-nucleoside on D-nucleoside inhibition of mitochondrial DNA synthesis” value [4] was “could prevent the effect of AZT, ddC, DDI or D4T in inhibiting the synthesis of mitochondrial DNA synthesis; also recorded: appears to inhibit the ability of the co-administered D-nucleoside to inhibit the synthesis of mitochondrial DNA”.
`Cc1cn([C@H]2C[C@H](N=[N+]=[N-])[C@@H](CO)O2)c(=O)[nH]c1=O` [AZT, 3'-azido-3'deoxythymidine] was tested, and the “Day 4 Cell Growth - % of Control” value ([1]; 0.5 uM, in combination with 1 uM 3TC) was 83 % of Control, the “Day 4 Cell Growth - % of Control” value ([1]; 0.5 uM, in combination with 1 uM (-) FTC) was 87 % of Control and the “Day 4 Cell Growth - % of Control” value ([1]; 0.5 uM, in combination with 1 uM β-L-FddC) was 80 % of Control. The “Day 4 Cell Growth - % of Control” value ([1]; 5.0 uM, in combination with 1 uM 3TC) was 76 % of Control, the “Day 4 Cell Growth - % of Control” value ([1]; 5.0 uM, in combination with 1 uM (-) FTC) was 83 % of Control and the “Day 4 Cell Growth - % of Control” value ([1]; 5.0 uM, in combination with 1 uM β-L-FddC) was 79 % of Control. The “Day 4 Cell Growth - % of Control” value ([1]; 50 uM, in combination with 1 uM 3TC) was 70 % of Control, the “Day 4 Cell Growth - % of Control” value ([1]; 50 uM, in combination with 1 uM (-) FTC) was 64 % of Control and the “Day 4 Cell Growth - % of Control” value ([1]; 50 uM, in combination with 1 uM β-L-FddC) was 75 % of Control. It also gave an activity at 0.5 µM ([1]; Homo sapiens, CCRF-CEM, 96 h, single agent, 0.5 uM, day 4, read-out: Day 4 Cell Growth - % of Control) of 91%, an activity at 5 µM ([1]; Homo sapiens, CCRF-CEM, 96 h, single agent, 5.0 uM, day 4, read-out: Day 4 Cell Growth - % of Control) of 89% and an activity at 50 µM ([1]; Homo sapiens, CCRF-CEM, 96 h, single agent, 50 uM, day 4, read-out: Day 4 Cell Growth - % of Control) of 74%. For the same compound, the “Day 4 Cell Growth - % of Control, expected effect of the combined agents (parenthetical)” value (“Day 4 Cell Growth - % … (parenthetical)” below) ([1]; 0.5 uM with 1 uM β-L-FddC) was 76 % of Control, the “Day 4 Cell Growth - % … (parenthetical)” value ([1]; 5.0 uM with 1 uM β-L-FddC) was 75 % of Control and the “Day 4 Cell Growth - % … (parenthetical)” value ([1]; 50 uM with 1 uM β-L-FddC) was 62 % of Control. For the same compound, the “Day 4 Cell Growth - % of Control” value ([1]; single agent, 0.5 uM, 5760 min) was 82 % of Control and 85 % of Control, the “Day 4 Cell Growth - % of Control” value ([1]; single agent, 5.0 uM, 5760 min) was 79 % of Control and the “Day 4 Cell Growth - % of Control” value ([1]; single agent, 50 uM, 5760 min) was 72 % of Control. The IC50 ([2]; read-out: ID50) was 90 nM and the “Nature of the anti-HIV combination effect with L-nucleosides (ID50)” value [3] was “synergistically; also recorded: synergistic”.
With `Nc1ccn(C2CCC(CO)O2)c(=O)n1` [ddC, β-D-2',3'-dideoxycytidine] the “Day 4 Cell Growth - % of Control” value ([1]; 0.01 uM, in combination with 1 uM 3TC) was 86 % of Control, the “Day 4 Cell Growth - % of Control” value ([1]; 0.01 uM, in combination with 1 uM (-) FTC) was 91 % of Control and the “Day 4 Cell Growth - % of Control” value ([1]; 0.01 uM, in combination with 1 uM β-L-FddC) was 88 % of Control. For the same compound, the “Day 4 Cell Growth - % of Control” value ([1]; 0.1 uM, in combination with 1 uM 3TC) was 83 % of Control, the “Day 4 Cell Growth - % of Control” value ([1]; 0.1 uM, in combination with 1 uM (-) FTC) was 87 % of Control and the “Day 4 Cell Growth - % of Control” value ([1]; 0.1 uM, in combination with 1 uM β-L-FddC) was 84 % of Control. The “Day 4 Cell Growth - % of Control” value ([1]; 1.0 uM, in combination with 1 uM 3TC) was 67 % of Control, the “Day 4 Cell Growth - % of Control” value ([1]; 1.0 uM, in combination with 1 uM (-) FTC) was 69 % of Control and the “Day 4 Cell Growth - % of Control” value ([1]; 1.0 uM, in combination with 1 uM β-L-FddC) was 76 % of Control. It also gave an activity at 0.01 µM ([1]; Homo sapiens, CCRF-CEM, 96 h, single agent, 0.01 uM, day 4, read-out: Day 4 Cell Growth - % of Control) of 92%, an activity at 0.1 µM [1, 5] of 80% and an activity at 1 µM [1, 6] of 70%. For the same compound, the “Day 4 Cell Growth - % … (parenthetical)” value ([1]; 0.01 uM with 1 uM β-L-FddC) was 78 % of Control, the “Day 4 Cell Growth - % … (parenthetical)” value ([1]; 0.1 uM with 1 uM β-L-FddC) was 78 % of Control and the “Day 4 Cell Growth - % … (parenthetical)” value ([1]; 1.0 uM with 1 uM β-L-FddC) was 66 % of Control. For the same compound, the “Day 4 Cell Growth - % of Control” value ([1]; single agent, 0.01 uM, 5760 min) was 89 % of Control and 93 % of Control, the “Day 4 Cell Growth - % of Control” value ([1]; single agent, 0.1 uM, 5760 min) was 83 % of Control and 93 % of Control and the “Day 4 Cell Growth - % of Control” value ([1]; single agent, 1.0 uM, 5760 min) was 65 % of Control and 79 % of Control. The IC50 [2, 7] was 600 nM and the “Nature of the anti-HIV combination effect with L-nucleosides (ID50)” value [3] was “additively; also recorded: additive”.
